SMILES strings stand for the structures. Read-outs that look alike come from different tables or passages of the source.

The values below come from US20240139210A1, “TREATMENT OF NF-KB-MEDIATED DISEASE” (ReveraGen BioPharma, Inc., priority 2020, published 2024).

Data set [1] deals with boys with DMD. Conditions: cited from earlier work; for LS Mean change in height percentiles for age: 12-month treatment period, DMD.
Data set [2] concerns participants with DMD. Conditions: CINRG DNHS, deflazacort n = 94, prednisone n = 80; cited from earlier work.
For data set [3], the system named is ambulant boys aged 4 to <7 years with DMD. Description: VBP15-004 adverse events. Conditions: male, human, in vivo, 24 weeks. More on the design: species or system human. The text has this:
(§1) The second period of 24 weeks, where all participants receive vamorolone treatment on either of the two dose levels, will continue to capture additional longer-term safety and tolerability data.
The study completion rate at 24 weeks was 94% (or 114 of 121 participants).
Pre-specified AESIs typically for corticosteroids were higher in prednisone-treated subjects than vamorolone-treated subjects after 24 weeks of treatment (Table 10).

Data set [4] has the same test system. Description: VBP15-004 bone turnover biomarkers. The class given is in vivo, human. Conditions: Prednisone 0.75 mg (N = 24).
Data set [5] shares this test system. Description: VBP15-004 growth (height Z scores). Type of data set: in vivo, human. Conditions: prednisone 0.75 mg/kg/day.
Description: as §1

Data set [6] has as its system boys with DMD. As to the kind of experiment: CINRG 12-month prednisone clinical trial, external comparator. The class given is in vivo, human. Conditions: vamorolone 18-month treatment versus prednisone trial 12-month treatment. As to the method:
As with the CINRG DNHS comparators, group-matching criteria were prespecified in the iSAP, and 2 independent statisticians carried out the participant matching. […] There was no corresponding 12-month assessment in vamorolone-treated participants. (Assessments of vamorolone-treated trial participants were 0, 3, 6, and 18 months).
Participants in the corticosteroid-treated CINRG DNHS group were treated for at least 18 months, but the total duration, dose, and regimens varied.

The mark [7] stands for this setting: 0.9 mg/kg/day deflazacort (n = 68), 0.75 mg/kg/day prednisone (n = 63).

`CC(=O)OCC(=O)[C@@]12N=C(C)O[C@@H]1C[C@H]1[C@@H]3CCC4=CC(=O)C=C[C@]4(C)[C@H]3[C@@H](O)C[C@@]12C` [Deflazacort, deflazacort]: in data set [1] (setting [7]), the “Incidence of physician-reported Cushingoid” value was 60.3%, the “Incidence of physician-reported behavior change” value is on record as 9%, the “Incidence of physician-reported hypertrichosis/hirsutism” value is 35% and the “Incidence of physician-reported weight gain” value is 27.9%. Besides, in data set [1], the “LS Mean change in height percentiles for age” value is reported as −11.4 percentile. In addition, the “LS Mean change in height percentiles for age” value in data set [1] (listed as deflazacort) was −11.43 percentile. In data set [2], the “Incidence of physician-reported Cushingoid” value is listed as 72%, the “Incidence of physician-reported behavior change” value is 33% and the “Incidence of physician-reported weight gain” value is reported as 63%.

Regarding `C[C@]12C=CC(=O)C=C1CC[C@@H]1[C@@H]2C(=O)C[C@@]2(C)[C@H]1CC[C@]2(O)C(=O)CO` [Prednisone, prednisone], in data set [3], the “clinically relevant psychiatric events, subjects” value is given as 19.4%; the “incidence of behavior problems” value is 32.3%; the “moderate/severe behavior problems, subjects” value stood at 22.6%. Moreover, in data set [4], the “Osteocalcin, mean (SEM) change at Week 24” value is given as −15.2 (2.7) ng/ml; the “Procollagen 1 N-Terminal Propeptide (P1NP), mean (SEM) change at Week 24” value was −134 (22) ng/mL; the “Type I Collagen C-Telopeptides (CTX), mean (SEM) change at Week 24” value is −300 (43) pg/mL. The “change in height Z scores from baseline to Week 24” value in data set [5] is “growth deceleration”. Besides, in data set [6], the “Mean BMI z-score, LS mean difference (SE), ANCOVA” value is 0.066 (0.193) and the “Mean height percentile for age, LS mean difference (SE), ANCOVA” value is 10.37 (3.86) percentile.
